Data as given in publication PMC5454392, “Selective BET bromodomain inhibition as an antifungal therapeutic strategy” (Nature Communications, 2017).
Entries after “also recorded” stand apart in the source; their conditions may differ.

What was measured:
CaBdf1 BD1 [1] = target: T1, CaBdf1 BD1 (Candida albicans, UniProt Q5A4W8); assay: HTRF assay, inhibition of BD binding to H4ac4 peptide; design: species or system C. albicans; details: HTRF, H4ac4 peptide; read-out: IC50
T1 construct: made in house; host or cells: E. coli BL21(DE3)

human Brd4 BD2 = target: T2, human Brd4 BD2 (Homo sapiens, UniProt O60885); assay: as above
T2 construct: GST-tagged human Brd4 BD2 (residues 349–460) was purchased from Reaction Biology Corp; purchased Reaction Biology Corp

SMARCA2 BD = target: T3, SMARCA2 BD (Homo sapiens, UniProt P51531); assay: Isothermal titration calorimetry (ITC); type: binding
T3 construct: Human SMARCA2 and SMARCA4 BD plasmids bearing an N-terminal His tag and TEV protease site; His tag with TEV site (N, cleaved yes); 73250; host or cells: E. coli BL21(DE3)
Protocol: (§1) Proteins used for crystallization and for ITC. […] Cells were resuspended in buffer A (50 mM Tris-HCl pH 7.5, 300 mM NaCl, 10% glycerol, 25 mM imidazole, 5 mM β-mercaptoethanol and protease inhibitors) and lysed by sonication. The cleared lysate was incubated with Ni-NTA resin (Qiagen) and washed with buffer A containing 0.5 M NaCl. Proteins were eluted with 250 mM imidazole, dialysed overnight in the presence of His-tagged TEV protease against buffer A containing no imidazole and incubated with Ni-NTA resin to remove His-tagged species. Proteins were further purified on a Superdex 75 10/300 (GE Healthcare) column in 50 mM Hepes pH 7.5, 150 mM NaCl, 0.5 mM dithiothreitol (DTT). Proteins were concentrated to >20 mg ml^−1 on a Centricon device (Millipore) and used for ITC, TSA and crystallization experiments. […] Expression and purification were performed as above, except that buffer A was replaced by buffer B (50 mM Hepes pH 7.5, 500 mM NaCl, 5% glycerol, 5 mM imidazole and protease inhibitors) and gel filtration was performed in 10 mM Hepes pH 7.5, 500 mM NaCl and 5% glycerol.
(§2) Calorimetric experiments were performed on a NanoITC calorimeter (TA Instruments) at 25 °C while stirring at 250 r.p.m. All proteins were buffer exchanged by gel filtration into 50 mM Hepes pH 7.5, 150 mM NaCl, 0.5 mM DTT, except for SMARCA2 and SMARCA4A BDs, which were exchanged into 10 mM Hepes pH 7.5, 500 mM NaCl and 5% glycerol. […] Titrations consisted of an initial injection of 1.5 μl followed by 19 identical injections of 2.5 μl made at time intervals of 5 min. ITC data were corrected for the heat of dilution of injectant into buffer and analysed with software provided by the manufacturer using a single binding site model. The first data point was excluded from the analysis. Thermodynamic parameters determined from the ITC data are summarized in Supplementary Table 1.

SMARCA4 BD = target: T4, SMARCA4 BD (Homo sapiens, UniProt P51532); assay: Isothermal titration calorimetry (ITC); type: binding
T4 construct: Human SMARCA2 and SMARCA4 BD plasmids bearing an N-terminal His tag and TEV protease site; His tag with TEV site (N, cleaved yes); 74664; host or cells: E. coli BL21(DE3)
Protocol: as §1, §2

[2] = test system: 32 representative human (BET and non-BET) BDs; assay: BROMOscan profiling (DiscoverX); type: binding; details: 10 μM; 35% of control used as cutoff for significant inhibition
Protocol: BROMOscan profiling was performed by DiscoverX (Fremont, CA, USA). […] Ligand-loading densities were optimized as described.

C. albicans = C. albicans growth assay in liquid media; type: cell-based; details: liquid media, WT allele repressed
Protocol: Growth on liquid media. C. albicans strains were grown at 30 °C in SC medium to an OD600 of 0.5–0.8. For the evaluation of growth defects related to Bdf1 mutations, log-phase growing cells were counted using a Neubauer chamber and diluted in liquid media to a final concentration of 5,400 cells per ml per well in a sterile 96-well plate. Dox (50 μg ml^−1) or methionine (5 mM)/cysteine (0.25 mM) were added to the media if required. Plates were incubated at 30 °C and OD600 was measured using a Multiskan FC Microplate Photometer (Thermo Fisher). For the evaluation of chemical compounds, strains were grown in SC medium supplemented with 50 μg ml^−1 Dox or 5 mM methionine/0.25 mM cysteine 24 h before counting and then seeded in 96-well plates at the same concentration as mentioned above, with or without chemical compounds. Statistical tests were performed using two-sided Welch t-tests.

CaBdf1 BD1 [3] = target: T1, CaBdf1 BD1; type: binding; details: CaBdf1 BD1 WT
Protocol: (§3) In short, arrays were blocked and incubated with 1 μM of purified CaBdf1 BD1 or BD2. Arrays were incubated with recombinant BDs for 2 h at 4 °C in binding buffer (Tris-HCl 50 mM pH 7.4, NP-40 0.1%, NaCl 150 mM, glycerol 10%). […] Assays were performed in duplicate.

CaBdf1 BD1 Y248F = target: T5, CaBdf1 BD1 Y248F (Candida albicans, UniProt Q5A4W8, Y248F); assay: Histone peptide microarray binding, YF mutant; design: species or system C. albicans; details: CaBdf1 BD1 YF mutant
T5 construct: made in house; host or cells: E. coli BL21(DE3), inferred from the wild-type GST construct
Protocol: (§4) In short, arrays were blocked and incubated with 1 μM of purified CaBdf1 BD1 or BD2. Arrays were incubated with recombinant BDs for 2 h at 4 °C in binding buffer (Tris-HCl 50 mM pH 7.4, NP-40 0.1%, NaCl 150 mM, glycerol 10%). […] Assays were performed in duplicate. Images were acquired on a Bio-Rad ChemiDoc XRS Imaging machine and data were quantified using the array analyser software provided by Active Motif.

CaBdf1 BD2 Y425F = target: T6, CaBdf1 BD2 Y425F (Candida albicans, UniProt Q5A4W8, Y425F); assay: Histone peptide microarray binding, YF mutant; design: species or system C. albicans; details: CaBdf1 BD2 YF mutant
T6 construct: made in house; host or cells: E. coli BL21(DE3), inferred from the wild-type GST construct
Protocol: as §4

CaBdf1 BD2 [4] = target: T7, CaBdf1 BD2 (Candida albicans, UniProt Q5A4W8); assay: HTRF assay, inhibition of BD binding to H4ac4 peptide; design: made in house; host or cells: E. coli BL21(DE3)
Target sequence in this assay (Q5A4W8 361-501): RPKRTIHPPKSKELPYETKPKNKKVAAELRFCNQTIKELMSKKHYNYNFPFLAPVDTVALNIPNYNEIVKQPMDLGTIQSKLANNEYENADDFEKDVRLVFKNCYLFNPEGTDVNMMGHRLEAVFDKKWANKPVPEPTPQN

CaBdf1 BD2 [5] = target: T7, CaBdf1 BD2; type: binding; design: made in house; host or cells: E. coli BL21(DE3); details: CaBdf1 BD2 WT
Protocol: as §3
Target sequence in this assay (Q5A4W8 361-501): as above

CaBdf1 BD2 [6] = target: T7, CaBdf1 BD2; assay: Isothermal titration calorimetry (ITC); type: binding; design: His tag with TEV site (N, cleaved yes); made in house; host or cells: E. coli BL21(DE3)
Protocol: as §1, §2
Target sequence in this assay (Q5A4W8 386-491): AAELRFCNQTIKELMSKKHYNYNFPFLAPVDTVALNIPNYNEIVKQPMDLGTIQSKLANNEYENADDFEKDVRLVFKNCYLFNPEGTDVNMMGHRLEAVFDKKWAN

T1 sequence (Q5A4W8 193-327): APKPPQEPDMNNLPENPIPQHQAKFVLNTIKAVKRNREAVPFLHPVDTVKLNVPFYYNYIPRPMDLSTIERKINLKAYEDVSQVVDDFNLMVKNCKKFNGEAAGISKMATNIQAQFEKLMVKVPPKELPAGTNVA
T4 sequence (P51532 1453-1564 limits assumed): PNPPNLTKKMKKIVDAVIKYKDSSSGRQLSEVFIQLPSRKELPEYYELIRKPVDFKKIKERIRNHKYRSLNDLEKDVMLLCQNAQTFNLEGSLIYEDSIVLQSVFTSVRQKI
T6 sequence (Q5A4W8 361-501 Y425F): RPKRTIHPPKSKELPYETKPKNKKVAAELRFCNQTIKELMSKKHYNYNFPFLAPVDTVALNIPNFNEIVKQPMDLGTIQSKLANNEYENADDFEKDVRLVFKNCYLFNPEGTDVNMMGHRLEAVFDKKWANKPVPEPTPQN
T3 sequence (P51531 1378-1506 limits assumed): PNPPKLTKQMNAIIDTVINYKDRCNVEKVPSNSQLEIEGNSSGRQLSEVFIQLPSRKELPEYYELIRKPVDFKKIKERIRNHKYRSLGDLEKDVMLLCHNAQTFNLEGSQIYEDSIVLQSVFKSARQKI
T5 sequence (Q5A4W8 193-327 Y248F): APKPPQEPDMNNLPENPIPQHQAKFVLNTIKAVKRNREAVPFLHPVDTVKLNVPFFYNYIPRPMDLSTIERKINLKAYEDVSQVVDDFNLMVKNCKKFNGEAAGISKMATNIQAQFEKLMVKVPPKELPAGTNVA

Cc1ccc(Nc2c(-c3ccc(O)cc3)nc3c(C)cccn23)cc1 [Compound 2]
IC50 (CaBdf1 BD1 [1]): ≥ 40000 nM | IC50 (human Brd4 BD2): ≥ 40000 nM | binding to SMARCA2 BD (in words) (SMARCA2 BD): no detectable binding; also recorded: no significant inhibition | binding to SMARCA4 BD (in words) (SMARCA4 BD): no detectable binding; also recorded: no significant inhibition | activity against human BDs in BROMOscan (in words) [2]: no significant inhibition was detected; also recorded: do not significantly inhibit | antifungal activity against mutant strains in which either BD1 or BD2 was inactivated (in words) (C. albicans): little antifungal activity | Peptide array signal, Normalized (0 to 100%), Average (CaBdf1 BD1 [3]): 0.0725% | Peptide array signal, raw data, Left (CaBdf1 BD1 [3]; left replicate array): 0.0005345 | Peptide array signal, raw data, Rigt (CaBdf1 BD1 [3]; right replicate array): 0.004276 | Peptide array signal, raw data, Left (CaBdf1 BD1 Y248F; left replicate array): 0.003429 | Peptide array signal, raw data, Right (CaBdf1 BD1 Y248F; right replicate array): 0.002743 | Peptide array signal, raw data, Left (CaBdf1 BD2 Y425F; left replicate array): 0.0004854 | Peptide array signal, raw data, Right (CaBdf1 BD2 Y425F; right replicate array): 0.002427 | IC50 (CaBdf1 BD2 [4]): 1100 nM | Peptide array signal, Normalized (0 to 100%), Average (CaBdf1 BD2 [5]): 0.37% | Peptide array signal, raw data, Left (CaBdf1 BD2 [5]; left replicate array): 0.005491 | Peptide array signal, raw data, Rigt (CaBdf1 BD2 [5]; right replicate array): 0.01304 | Kd (CaBdf1 BD2 [6]): 2100 nM | N (stoichiometry) (CaBdf1 BD2 [6]; ITC, 25 °C): 1.21 ± 0.11 | TΔS (CaBdf1 BD2 [6]; ITC, 25 °C): 2.01 kcal/mol | ΔG (CaBdf1 BD2 [6]; ITC, 25 °C): -7.741 kcal/mol | ΔH (CaBdf1 BD2 [6]; ITC, 25 °C): -5.74 ± 0.96 kcal/mol
